These results are taken from patent US12049450B2, “Pyridyloxy-carboxylate derivative and preparation method therefor, herbicidal composition, and use” (Qingdao Kingagroot Chemical Compound Co., Ltd., priority 2018, dated 2024).

Test in all cases: Post-emergence test experiment (greenhouse pot, spray at 2-3 leaf stage)
Common to all, as to assay type: in vivo
Holding throughout (conditions): 1000 g/ha; post-emergence spray at 2-3 leaf stage; assessed after 3 weeks; fresh weight inhibition rate

Assay [1] has as its system Abutilon theophrasti. The essentials:
(§1)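 Activity graded levels 0-5 by fresh-weight inhibition (level 5 above 85%, level 0 below 5%), assessed 3 weeks after treatment. Plants grown in greenhouse pots were sprayed post-emergence at 2-3 leaves using acetone/tween-80 solutions with methyl oleate synergist (1.5 L/ha).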

Assay [2] concerns Digitaria sanguinalis. The essentials: as §1
Assay [3] has as its system Echinochloa crusgalli. The gist of the method:
as §1

Assay [4] concerns Galium spurium. The gist of the method:
as §1

In assay [5] the test system is Monochoria vaginalis. The gist of the method:
as §1

Regarding `CCCc1c(OC(C)C(=O)OCc2ccccc2)nc(Br)c(Cl)c1N` (stereo not drawn) [Compound 18], the “Activity level (growth inhibition rate) Abutilon theophrasti” value in assay [1] is 5 (Level 5: the growth inhibition rate is greater than 85%). Also, the “Activity level (growth inhibition rate) Digitaria sanguinalis” value in assay [2] is reported as 5 (Level 5: the growth inhibition rate is greater than 85%). In addition, the “Activity level (growth inhibition rate) Echinochloa crusgalli” value in assay [3] is on record as 5 (Level 5: the growth inhibition rate is greater than 85%). The “Activity level (growth inhibition rate) Galium spurium” value in assay [4] is given as 5 (Level 5: the growth inhibition rate is greater than 85%). Also, the “Activity level (growth inhibition rate) Monochoria Vaginalis” value in assay [5] is recorded as 5 (Level 5: the growth inhibition rate is greater than 85%).

`Cc1nc(OC(C)C(=O)OCc2ccccc2)c(C)c(N)c1C` (stereo not drawn) [Compound 19]: the “Activity level (growth inhibition rate) Abutilon theophrasti” value in assay [1] was 5 (Level 5: the growth inhibition rate is greater than 85%). For the same compound, in assay [2], the “Activity level (growth inhibition rate) Digitaria sanguinalis” value is on record as 5 (Level 5: the growth inhibition rate is greater than 85%). The “Activity level (growth inhibition rate) Echinochloa crusgalli” value in assay [3] is recorded as 5 (Level 5: the growth inhibition rate is greater than 85%). In assay [4], the “Activity level (growth inhibition rate) Galium spurium” value is 5 (Level 5: the growth inhibition rate is greater than 85%). Besides, the “Activity level (growth inhibition rate) Monochoria Vaginalis” value in assay [5] is 5 (Level 5: the growth inhibition rate is greater than 85%).

In the case of `Cc1c(OC(C)C(=O)OCc2ccccc2)ncc(Cl)c1N` (stereo not drawn) [Compound 21], the “Activity level (growth inhibition rate) Abutilon theophrasti” value in assay [1] is reported as 5 (Level 5: the growth inhibition rate is greater than 85%). The “Activity level (growth inhibition rate) Digitaria sanguinalis” value in assay [2] was 5 (Level 5: the growth inhibition rate is greater than 85%). In assay [3], the “Activity level (growth inhibition rate) Echinochloa crusgalli” value is reported as 5 (Level 5: the growth inhibition rate is greater than 85%). Also, the “Activity level (growth inhibition rate) Galium spurium” value in assay [4] is listed as 5 (Level 5: the growth inhibition rate is greater than 85%). Besides, in assay [5], the “Activity level (growth inhibition rate) Monochoria Vaginalis” value is recorded as 5 (Level 5: the growth inhibition rate is greater than 85%).

In the case of `CC(Oc1nc(F)c(Cl)c(N)c1C1CC1)C(=O)OCc1ccccc1` (stereo not drawn) [Compound 22], the “Activity level (growth inhibition rate) Abutilon theophrasti” value in assay [1] is 5 (Level 5: the growth inhibition rate is greater than 85%). For the same compound, the “Activity level (growth inhibition rate) Digitaria sanguinalis” value in assay [2] was 5 (Level 5: the growth inhibition rate is greater than 85%). In addition, in assay [3], the “Activity level (growth inhibition rate) Echinochloa crusgalli” value is on record as 5 (Level 5: the growth inhibition rate is greater than 85%). Moreover, in assay [4], the “Activity level (growth inhibition rate) Galium spurium” value was 5 (Level 5: the growth inhibition rate is greater than 85%). Also, the “Activity level (growth inhibition rate) Monochoria Vaginalis” value in assay [5] was 5 (Level 5: the growth inhibition rate is greater than 85%).

Consider `CC(Oc1ncc(Cl)c(N)c1Cl)C(=O)SCc1ccccc1` (stereo not drawn) [Compound 23], for which, in assay [1], the “Activity level (growth inhibition rate) Abutilon theophrasti” value is 5 (Level 5: the growth inhibition rate is greater than 85%). In assay [2], the “Activity level (growth inhibition rate) Digitaria sanguinalis” value is recorded as 5 (Level 5: the growth inhibition rate is greater than 85%). Moreover, the “Activity level (growth inhibition rate) Echinochloa crusgalli” value in assay [3] is listed as 5 (Level 5: the growth inhibition rate is greater than 85%). For the same compound, the “Activity level (growth inhibition rate) Galium spurium” value in assay [4] is 5 (Level 5: the growth inhibition rate is greater than 85%). The “Activity level (growth inhibition rate) Monochoria Vaginalis” value in assay [5] is given as 5 (Level 5: the growth inhibition rate is greater than 85%).

In the case of `CC(Oc1nc(Cl)c(Cl)c(N)c1Cl)C(=O)SCc1ccccc1` (stereo not drawn) [Compound 24], the “Activity level (growth inhibition rate) Abutilon theophrasti” value in assay [1] is given as 5 (Level 5: the growth inhibition rate is greater than 85%). For the same compound, the “Activity level (growth inhibition rate) Digitaria sanguinalis” value in assay [2] was 5 (Level 5: the growth inhibition rate is greater than 85%). In addition, in assay [3], the “Activity level (growth inhibition rate) Echinochloa crusgalli” value is listed as 5 (Level 5: the growth inhibition rate is greater than 85%). The “Activity level (growth inhibition rate) Galium spurium” value in assay [4] was 5 (Level 5: the growth inhibition rate is greater than 85%). Also, the “Activity level (growth inhibition rate) Monochoria Vaginalis” value in assay [5] is reported as 5 (Level 5: the growth inhibition rate is greater than 85%).

For `CC(Oc1nc(F)c(Cl)c(N)c1Cl)C(=O)OCC1CCCO1` (stereo not drawn) [Compound 68], in assay [1], the “Activity level (growth inhibition rate) Abutilon theophrasti” value is on record as 5 (Level 5: the growth inhibition rate is greater than 85%). The “Activity level (growth inhibition rate) Digitaria sanguinalis” value in assay [2] is given as 5 (Level 5: the growth inhibition rate is greater than 85%). Also, the “Activity level (growth inhibition rate) Echinochloa crusgalli” value in assay [3] was 5 (Level 5: the growth inhibition rate is greater than 85%). The “Activity level (growth inhibition rate) Galium spurium” value in assay [4] is on record as 5 (Level 5: the growth inhibition rate is greater than 85%). The “Activity level (growth inhibition rate) Monochoria Vaginalis” value in assay [5] is 5 (Level 5: the growth inhibition rate is greater than 85%).

In the case of `Cc1ccccc1COC(=O)C(C)Oc1nc(F)c(Cl)c(N)c1Cl` (stereo not drawn) [Compound 69], the “Activity level (growth inhibition rate) Abutilon theophrasti” value in assay [1] was 5 (Level 5: the growth inhibition rate is greater than 85%). Further, the “Activity level (growth inhibition rate) Digitaria sanguinalis” value in assay [2] is on record as 5 (Level 5: the growth inhibition rate is greater than 85%). Further, the “Activity level (growth inhibition rate) Echinochloa crusgalli” value in assay [3] was 5 (Level 5: the growth inhibition rate is greater than 85%). In assay [4], the “Activity level (growth inhibition rate) Galium spurium” value was 5 (Level 5: the growth inhibition rate is greater than 85%). Besides, the “Activity level (growth inhibition rate) Monochoria Vaginalis” value in assay [5] is recorded as 5 (Level 5: the growth inhibition rate is greater than 85%).

With `CC(Oc1nc(F)c(Cl)c(N)c1Cl)C(=O)SCc1cccc(C(C)C)c1` (stereo not drawn) [Compound 71], the “Activity level (growth inhibition rate) Abutilon theophrasti” value in assay [1] is on record as 5 (Level 5: the growth inhibition rate is greater than 85%). For the same compound, the “Activity level (growth inhibition rate) Digitaria sanguinalis” value in assay [2] was 5 (Level 5: the growth inhibition rate is greater than 85%). In assay [3], the “Activity level (growth inhibition rate) Echinochloa crusgalli” value is 5 (Level 5: the growth inhibition rate is greater than 85%). Further, in assay [4], the “Activity level (growth inhibition rate) Galium spurium” value was 5 (Level 5: the growth inhibition rate is greater than 85%). For the same compound, in assay [5], the “Activity level (growth inhibition rate) Monochoria Vaginalis” value is recorded as 5 (Level 5: the growth inhibition rate is greater than 85%).

As to `CC(Oc1nc(F)c(Cl)c(N)c1Cl)C(=O)OCc1ccc(C(C)C)cc1` (stereo not drawn) [Compound 72], the “Activity level (growth inhibition rate) Abutilon theophrasti” value in assay [1] is on record as 5 (Level 5: the growth inhibition rate is greater than 85%). The “Activity level (growth inhibition rate) Digitaria sanguinalis” value in assay [2] is reported as 5 (Level 5: the growth inhibition rate is greater than 85%). For the same compound, in assay [3], the “Activity level (growth inhibition rate) Echinochloa crusgalli” value is 5 (Level 5: the growth inhibition rate is greater than 85%). Besides, the “Activity level (growth inhibition rate) Galium spurium” value in assay [4] is given as 5 (Level 5: the growth inhibition rate is greater than 85%). Further, the “Activity level (growth inhibition rate) Monochoria Vaginalis” value in assay [5] is given as 5 (Level 5: the growth inhibition rate is greater than 85%).

As for `C/C=C/c1ccc(CSC(=O)C(C)Oc2nc(F)c(Cl)c(N)c2Cl)cc1` (stereo not drawn) [Compound 73], the “Activity level (growth inhibition rate) Abutilon theophrasti” value in assay [1] was 5 (Level 5: the growth inhibition rate is greater than 85%). In addition, the “Activity level (growth inhibition rate) Digitaria sanguinalis” value in assay [2] was 5 (Level 5: the growth inhibition rate is greater than 85%). The “Activity level (growth inhibition rate) Echinochloa crusgalli” value in assay [3] is reported as 5 (Level 5: the growth inhibition rate is greater than 85%). The “Activity level (growth inhibition rate) Galium spurium” value in assay [4] is on record as 5 (Level 5: the growth inhibition rate is greater than 85%). The “Activity level (growth inhibition rate) Monochoria Vaginalis” value in assay [5] is on record as 5 (Level 5: the growth inhibition rate is greater than 85%).

`CC(Oc1nc(F)c(Cl)c(N)c1Cl)C(=O)OCc1ccc(C2CC2)cc1` (stereo not drawn) [Compound 74]: the “Activity level (growth inhibition rate) Abutilon theophrasti” value in assay [1] is 5 (Level 5: the growth inhibition rate is greater than 85%). In addition, the “Activity level (growth inhibition rate) Digitaria sanguinalis” value in assay [2] is given as 5 (Level 5: the growth inhibition rate is greater than 85%). In assay [3], the “Activity level (growth inhibition rate) Echinochloa crusgalli” value is given as 5 (Level 5: the growth inhibition rate is greater than 85%). In assay [4], the “Activity level (growth inhibition rate) Galium spurium” value was 5 (Level 5: the growth inhibition rate is greater than 85%). Besides, the “Activity level (growth inhibition rate) Monochoria Vaginalis” value in assay [5] was 5 (Level 5: the growth inhibition rate is greater than 85%).

On to `CC(Oc1nc(F)c(Cl)c(N)c1Cl)C(=O)OC(C)c1ccc(Br)cc1` (stereo not drawn) [Compound 77], for which the “Activity level (growth inhibition rate) Abutilon theophrasti” value in assay [1] was 5 (Level 5: the growth inhibition rate is greater than 85%). Further, the “Activity level (growth inhibition rate) Digitaria sanguinalis” value in assay [2] is on record as 5 (Level 5: the growth inhibition rate is greater than 85%). Besides, the “Activity level (growth inhibition rate) Echinochloa crusgalli” value in assay [3] is 5 (Level 5: the growth inhibition rate is greater than 85%). Further, the “Activity level (growth inhibition rate) Galium spurium” value in assay [4] is 5 (Level 5: the growth inhibition rate is greater than 85%). In assay [5], the “Activity level (growth inhibition rate) Monochoria Vaginalis” value is on record as 5 (Level 5: the growth inhibition rate is greater than 85%).

For the compound `CC(Oc1nc(F)c(Cl)c(N)c1Cl)C(=O)OCc1cccc(I)c1` (stereo not drawn) [Compound 78], in assay [1], the “Activity level (growth inhibition rate) Abutilon theophrasti” value is 5 (Level 5: the growth inhibition rate is greater than 85%). For the same compound, the “Activity level (growth inhibition rate) Digitaria sanguinalis” value in assay [2] is 5 (Level 5: the growth inhibition rate is greater than 85%). In addition, the “Activity level (growth inhibition rate) Echinochloa crusgalli” value in assay [3] is reported as 5 (Level 5: the growth inhibition rate is greater than 85%). Moreover, the “Activity level (growth inhibition rate) Galium spurium” value in assay [4] is reported as 5 (Level 5: the growth inhibition rate is greater than 85%). The “Activity level (growth inhibition rate) Monochoria Vaginalis” value in assay [5] was 5 (Level 5: the growth inhibition rate is greater than 85%).

With `CC(Oc1nc(F)c(Cl)c(N)c1Cl)C(=O)OCc1cc(F)ccc1F` (stereo not drawn) [Compound 79], the “Activity level (growth inhibition rate) Abutilon theophrasti” value in assay [1] is recorded as 5 (Level 5: the growth inhibition rate is greater than 85%). Also, the “Activity level (growth inhibition rate) Digitaria sanguinalis” value in assay [2] is given as 5 (Level 5: the growth inhibition rate is greater than 85%). Moreover, the “Activity level (growth inhibition rate) Echinochloa crusgalli” value in assay [3] is 5 (Level 5: the growth inhibition rate is greater than 85%). Moreover, in assay [4], the “Activity level (growth inhibition rate) Galium spurium” value was 5 (Level 5: the growth inhibition rate is greater than 85%). Further, the “Activity level (growth inhibition rate) Monochoria Vaginalis” value in assay [5] is given as 5 (Level 5: the growth inhibition rate is greater than 85%).
